How the values were obtained:
Assay type in all cases: biochemical
deoxyribose [1] = test: TBARS assay, metals that enhance radical production during ultrasound (Example 6)
Protocol: (§1) The following example uses the thiobarbituric acid-reactive substances (TBARS) assay to identify metals that enhance radical production during ultrasound. All solutions were prepared in pH 7.5 phosphate buffer containing approximately 2 mM deoxyribose, 0.01% hydrogen peroxide, and the additives indicated in the table below. Solutions were sonicated at 30 W, 2 MHz, 32-34 degrees Celsius for ten minutes using a PZT-8 1.8 cm diameter custom transducer. The sonicated solution was placed on an orbit shaker rotating at 25 RPM to ensure even sonication of the solution while the transducer was held stationary. Control solutions were placed in a controlled temperature bath at 32-34 degrees Celsius without sonication. After 10 minutes of treatment, 1 mL test solution was placed in a test tube followed by 2 mL of 1% 2-thiobarbituric acid and 2 mL of 2.8% trichloroacetic acid. The test tube was sealed and heated to 90 degrees Celsius for 30 minutes and allowed to cool to room temperature for 20 minutes. The absorbance at 532 nm was measured. The enhanced radical production during ultrasound exposure was determined by comparing the amount of deoxyribose degradation that occurs in the sonicated solution versus the control solution using the following equation: [formula]

ferritin [2] = test: Release of iron from ferritin assay, additives, ultrasound (Example 10); conditions: 0.2 mg/mL ferritin, pH 7, 15 min
Protocol: (§2) The following example uses the release of iron from ferritin assay to show the effect of additives on the release of iron from ferritin during ultrasound exposure. All solutions were prepared in pH 7 acetic acid solution containing approximately 0.2 mg/mL ferritin and 1 mM ferrozine, and the concentration of 1,4-quinone indicated in the table below. Solutions were sonicated at 30 W, 2 MHz, 32-34 degrees Celsius for fifteen minutes using a PZT-8 1.8 cm diameter custom transducer. The sonicated solution was placed on an orbit shaker rotating at 25 RPM to ensure even sonication of the solution while the transducer was held stationary. Control solutions were placed in a controlled temperature bath at 32-34 degrees Celsius without sonication. After 15 minutes of treatment, an aliquot was tested for the presence of the iron-ferrozine chelate via absorbance at 562 nm. The amount of iron released was determined using the control solution corrected absorbance (subtract the absorbance of the control solution from the absorbance of the ultrasound solution). The corrected absorbance was compared to a ferrozine-iron standard curve to determine the enhanced iron release due to ultrasound exposure. The enhanced iron release due to ultrasound exposure in the presence of the additive was compared to the amount of enhanced iron release due to ultrasound exposure in the absence of any additives as follows: [formula]

[3] = Free radical production when exposed to ultrasound and a metal (statements in the description); conditions: when exposed to ultrasound and a metal
deoxyribose [4] = test: TBARS assay, additives with ferrous iron/EDTA, ultrasound (Example 11); conditions: 0.075 mM additive; 0.05 mM ferrous iron, 0.075 mM EDTA
Protocol: as §1, with “are” for “were”, “peroxide, 0.05 mM ferrous iron added as FeSO4 hydrate, 0.075 mM EDTA,” for “peroxide,”, “is” for “was”

ferritin [5] = test: Release of iron from ferritin assay, naphthoquinones, ultrasound (Example 8); conditions: iron release vs ultrasound without additive, 0.2 mg/mL ferritin, pH 7, 15 min
Protocol: as §2, with “of naphthoquinones” for “of additives”, “of naphthoquinone” for “of 1,4-quinone”, “the amount of” for “the enhanced”, “iron released.” for “iron release due to ultrasound exposure.”, “the naphthoquinone” for “the additive”

ferritin [6] = test: Release of iron from ferritin assay, anthraquinones, ultrasound (Example 9); conditions: 0.2 mg/mL ferritin, pH 7.5, 15 min
Protocol: All solutions are prepared in pH 7.5 phosphate buffer containing approximately 0.2 mg/mL ferritin and 1 mM ferrozine, and the concentration of anthraquinone indicated in the table below. Solutions are sonicated at 30 W, 2 MHz, 32-34 degrees Celsius for fifteen minutes using a PZT-8 1.8 cm diameter custom transducer. The sonicated solution is placed on an orbit shaker rotating at 25 RPM to ensure even sonication of the solution while the transducer is held stationary. Control solutions are placed in a controlled temperature bath at 32-34 degrees Celsius without sonication. After 15 minutes of treatment, an aliquot is tested for the presence of the iron-ferrozine chelate via absorbance at 562 nm. The amount of iron released is determined using the control solution corrected absorbance (subtract the absorbance of the control solution from the absorbance of the ultrasound solution). The corrected absorbance is compared to a ferrozine-iron standard curve to determine the amount of iron released.

deoxyribose [7] = test: TBARS assay, existing sonodynamic agents with a metal, ultrasound (Example 13); conditions: 0.025 mM ferrous iron, 0.025 mM ferric iron
Protocol: as §1, with “All” for “The following example uses the thiobarbituric acid-reactive substances (TBARS) assay to identify metals that enhance radical production during ultrasound. All”, “peroxide, 0.025 mM ferrous iron, 0.025 mM ferric iron,” for “peroxide,”

deoxyribose [8] = test: TBARS assay, existing sonodynamic agents with a metal, ultrasound (Example 14); conditions: 0.025 mM ferrous iron, 0.025 mM ferric iron
Protocol: as §1, with “All” for “The following example uses the thiobarbituric acid-reactive substances (TBARS) assay to identify metals that enhance radical production during ultrasound. All”, “are” for “were”, “peroxide, 0.025 mM ferrous iron, 0.025 mM ferric iron,” for “peroxide,”, “is” for “was”

Compound: [Cl][Cu][Cl] [Cupric chloride]
- % Ultrasound Mediated Activity vs Control (deoxyribose [1]; cupric chloride 0.026 mM): 82%

Compound: Ferritin
- % Ultrasound Mediated Activity vs Control (deoxyribose [1]; ferritin approx. 0.2 mg/mL): 6%

Compound: CC(C)(S)[C@@H](N)C(=O)O [PENICILLAMINE]
- % Ultrasound Mediated Activity (ferritin [2]; 0.11 mM additive): 117%
- free radical production [3]: increase free radical production

Compound: O=c1c(O)c(-c2ccc(O)c(O)c2)oc2cc(O)cc(O)c12 [Quercetin]
- % Ultrasound Mediated Activity vs Control (deoxyribose [4]): >100%

Compound: O=C1C=CC(=O)c2c(O)cccc21 [5-hydroxy-1,4-naphthoquinone (juglone), 5-hydroxy-1,4-naphthoquinone]
- % Ultrasound Mediated Activity (ferritin [5]; 10 uM additive): 93%

Compound: O=C1c2ccccc2C(=O)c2c1cc(S(=O)(=O)O)c(O)c2O [Alizarin Red S, 3,4-dihydroxy-9,10-dioxo-2-anthracenesulfonic acid]
- % Ultrasound Mediated Activity (ferritin [6]; 0.05 mM additive): >50%

Compound: O=C([O-])c1c(Cl)c(Cl)c(Cl)c(Cl)c1-c1c2cc(I)c(=O)c(I)c-2oc2c(I)c([O-])c(I)cc12.[Na+].[Na+] [Rose Bengal]
- % Ultrasound Mediated Activity vs Control (deoxyribose [7]; 0.028 mM additive): 28%

Compound: CC1=CC(=O)c2ccccc2C1=O [2-methyl-1,4-naphthoquinone (menadione), 2-methyl-1,4-naphthoquinone]
- % Ultrasound Mediated Activity (ferritin [5]; 18 uM additive): 5.3%

Compound: O=C1C=CC(=O)C=C1 [1,4 benzoquinone]
- % Ultrasound Mediated Activity (ferritin [2]; concentration not given): 0%

Compound: O=c1c(O)c(-c2cc(O)c(O)c(O)c2)oc2cc(O)cc(O)c12 [Myricetin]
- % Ultrasound Mediated Activity vs Control (deoxyribose [4]): >100%

Compound: O=C1C(O)=C(O)C(=O)C(O)=C1O [Tetrahydroxy 1,4-benzoquinone]
- % Ultrasound Mediated Activity (ferritin [2]; 0.11 mM additive): 186%

Compound: O=S(=O)([O-])[O-].O=S(=O)([O-])[O-].[Fe+2].[NH4+].[NH4+] [Ferrous iron added as Fe(NH4)2(SO4)2, Fe(NH4)2(SO4)2]
- % Ultrasound Mediated Activity vs Control (deoxyribose [1]; ferrous iron 0.1 mM): 12%

Compound: Hypocrellin A
- % Ultrasound Mediated Activity vs Control (deoxyribose [8]; 0.025 mM additive): >30%

Compound: O=C(O)c1cc(O)c2c(c1)C(=O)c1cccc(O)c1C2=O [Rhein, 9,10-dihydro-4,5-dihydroxy-9,10-dioxo-2-anthracenecarboxylic acid]
- % Ultrasound Mediated Activity (ferritin [6]; 0.05 mM additive): >50%

Compound: O=C1c2ccccc2C(=O)c2cc(S(=O)(=O)O)ccc21 [Anthraquinone-2-sulfonic acid]
- % Ultrasound Mediated Activity (ferritin [6]; concentration not given): <10%

Compound: O=C(O)/C(O)=C(\O)C(=O)O [DIHYDROXYFUMARATE]
- % Ultrasound Mediated Activity (ferritin [2]; 0.01 mM additive): 72%

Compound: Cc1cc(O)c2c(c1)C(=O)c1cc(O)cc(O)c1C2=O [Emodin, 6-methyl-1,3,8-trihydroxyanthraquinone]
- % Ultrasound Mediated Activity (ferritin [6]; 0.05 mM additive): >50%

Compound: Cc1cc(O)c2c(c1)C(=O)c1cccc(O)c1C2=O [Chrysophanol, 1,8-dihydroxy-3-methylanthraquinone]
- % Ultrasound Mediated Activity (ferritin [6]; 0.05 mM additive): >50%

Compound: O=C1C=CC(=O)c2c(O)ccc(O)c21 [5,8 dihydroxy-1,4-naphthoquinone]
- % Ultrasound Mediated Activity (ferritin [5]; 106 uM additive): 185%

Compound: COc1cccc2c1C(=O)c1c(O)c3c(c(O)c1C2=O)C[C@@](O)(C(=O)CO)C[C@@H]3O[C@H]1C[C@H](N)[C@H](O)[C@H](C)O1 [Adriamycin]
- % Ultrasound Mediated Activity vs Control (deoxyribose [7]; 0.029 mM additive): 29%

Compound: N[C@@H](CS)C(=O)O [CYSTEINE]
- % Ultrasound Mediated Activity (ferritin [2]; 0.45 mM additive): 160%
- free radical production [3]: increase free radical production

Compound: Iron(III) phthalocyanine-4,4′,4″,4″′-tetrasulfonic acid
- % Ultrasound Mediated Activity vs Control (deoxyribose [8]; 0.025 uM additive): >30%

Compound: [Cl][Fe]([Cl])[Cl] [Ferric iron added as FeCl3, FeCl3]
- % Ultrasound Mediated Activity vs Control (deoxyribose [1]; ferric iron approx 0.1 mM): 76%

— US20030082101A1, “Accelerators for increasing the rate of formation of free radicals and reactive oxygen species” (Cavalier Discovery, priority 2001, published 2003)
